{"source": "patent US20110230423A1", "about": "“THERAPY AND MEDICAMENT USING INTEGRIN LIGANDS FOR TREATING CANCER” (priority 2008, published 2011)", "key": {"[1]": {"tested_on": "newly diagnosed glioblastoma (GBM)", "assay": "Phase I/IIa trial of cilengitide and temozolomide with concomitant radiotherapy, followed by maintenance, in newly diagnosed glioblastoma", "assay_type": "in vivo, human", "method": "Purpose: To evaluate safety, toxicity, and efficacy of the combination of the cyclic RGD pentapeptide Cilengitide (=cyclo-(Arg-Gly-Asp-DPhe-NMe-Val)), an inhibitor of integrins avβ3 and avβ5, in addition to standard temozolomide (TMZ) and radiotherapy (RT).\nPatients and methods: Fifty-two pts (PS 0-1: 92%, 2: 8%; median age 57 yrs) after biopsy (n=9/17%) or tumor resection (n=43/83%) were treated with standard TMZ/RT (Stupp et al. NEJM 2005). In addition Cilengitide (500 mg i.v., 2×/week) was started one week before TMZ/RT and given throughout for the duration of chemotherapy or until progression. Primary endpoint was progression free survival rate at 6 months (target: 65%). Patients were followed with MRI every 2 months. Histopathologic diagnosis and MRI imaging were independently reviewed, MGMT promoter methylation status was assessed in 45 (86.5%) pts."}, "[2]": {"tested_on": "U251 human glioblastoma cells", "assay": "Rat orthotopic glioblastoma model radiotherapy, cilengitide scheduling experiments", "assay_type": "in vivo, NIH rnu nude rats", "details": "individual animals", "method": "NIH rnu nude rats are anaesthetized, restrained, and injected intracerebrally 1 mm retro orbitally, 3 mm to the right of the bregma and at a depth of 2.5 mm with 5×10E5 U251 human glioblastoma cells suspended in 10 ul of culture medium, using a #2701 Hamilton syringe fitted with a 26 gauge needle, essentially as previously described (Engebraaten et al., 1999). After 14 days, cilengitide (4 mg/kg) is given as an intraperitoneal bolus in PBS, at various time (8 h, 4 h, 2 h, 1 h) prior to a single treatment with single, collimated, dorsal-ventral beam of 6 MV x-rays, so that 95-100% of the central axis dose of 25 Gy hit the tumor volume (Kim et al., 1999). Each of the 7 subsequent days the animals also received an identical i.p. bolus of cilengitide. The animals are maintained under ad libitum food and drink until they become moribund, or are sampled for tissue analysis (in the t-4 and t-8 h groups, where the animals are healthy past 230 days post tumor injection). A Kaplan-Meier survival curve is calculated and plotted (FIG. 1) from the raw data (Table 1). All animals in the RT monotherapy group died by 120 d."}, "brain metastases": {"tested_on": "brain metastases", "details": "hypofractionation approach with or without the radiosensitizer; cited from earlier work"}}, "data": [{"smiles": "CC(C)[C@H]1C(=O)N[C@@H](CCCN=C(N)N)C(=O)NCC(=O)N[C@@H](CC(=O)O)C(=O)N[C@H](Cc2ccccc2)C(=O)N1C", "note": "[Cilengitide, cyclo-(Arg-Gly-Asp-DPhe-NMeVal)]", "values": [{"measurement": "Treatment related non-hematologic grade 3 toxicities (patients)", "setting": "[1]; Cilengitide 500 mg i.v. 2x/week plus standard TMZ/RT, n=3/52", "result": 5.7, "unit": "%"}, {"measurement": "Tolerability of the combination", "setting": "[1]; Cilengitide and TMZ/RT", "result": "well tolerated"}, {"measurement": "sigmoid perforation (grade 2), patients", "setting": "[1]; patient with a history of sigmoid diverticulosis", "result": "One"}, {"measurement": "Days Post Implant", "setting": "[2]; cilengitide 4 mg/kg i.p. 4 hours pre-irradiation (Rt 25 Gy) plus 7 subsequent daily boluses", "result": "> 230", "unit": "days"}, {"measurement": "Days Post Implant", "setting": "[2]; cilengitide 4 mg/kg i.p. 8 hours pre-irradiation (Rt 25 Gy) plus 7 subsequent daily boluses", "result": "> 230", "unit": "days"}]}, {"smiles": "COCC(O)Cn1ccnc1[N+](=O)[O-]", "note": "(stereo not drawn) [misonidazol]", "values": [{"measurement": "median survival", "setting": "brain metastases", "result": "≤ 3.9", "unit": "months"}]}]}
